Test results taken from patent publication US20180243298A1, “TRPV3 MODULATORS” (AbbVie Inc., priority 2015, published 2018).

Target: T1, human TRPV3 (Homo sapiens, UniProt Q8NET8)
T1 construct: expressed in transfected cells; host or cells: HEK293
T1 sequence (Q8NET8 1-790): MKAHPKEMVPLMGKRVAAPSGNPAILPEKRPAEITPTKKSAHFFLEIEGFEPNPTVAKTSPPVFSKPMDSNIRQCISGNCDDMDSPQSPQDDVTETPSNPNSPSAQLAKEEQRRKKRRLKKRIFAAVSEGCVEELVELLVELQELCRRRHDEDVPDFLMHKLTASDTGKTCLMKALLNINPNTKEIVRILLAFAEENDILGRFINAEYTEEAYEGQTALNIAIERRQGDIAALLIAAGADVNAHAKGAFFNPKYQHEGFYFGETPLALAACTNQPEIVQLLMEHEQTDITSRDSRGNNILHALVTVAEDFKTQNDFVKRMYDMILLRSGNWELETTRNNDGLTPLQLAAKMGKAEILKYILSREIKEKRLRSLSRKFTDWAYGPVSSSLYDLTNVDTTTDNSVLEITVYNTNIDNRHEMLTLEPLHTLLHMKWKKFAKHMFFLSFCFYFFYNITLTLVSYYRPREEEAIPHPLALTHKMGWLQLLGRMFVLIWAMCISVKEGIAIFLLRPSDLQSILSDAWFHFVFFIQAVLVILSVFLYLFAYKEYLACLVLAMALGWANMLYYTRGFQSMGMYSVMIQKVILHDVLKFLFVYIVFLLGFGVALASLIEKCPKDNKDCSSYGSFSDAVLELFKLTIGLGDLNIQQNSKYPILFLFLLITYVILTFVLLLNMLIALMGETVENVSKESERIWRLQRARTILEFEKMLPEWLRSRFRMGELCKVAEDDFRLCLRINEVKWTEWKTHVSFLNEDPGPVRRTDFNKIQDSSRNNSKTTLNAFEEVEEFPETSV
Test: Calcium flux assay (FLIPR TETRA), recombinant HEK293 cells expressing TRPV3, 2-APB response
Assay type: cell-based
Conditions: 2-APB at its EC80
Method: (i) In Vitro Methods-Calcium Flux Assays:
Experiments were conducted using the FLIPR TETRA®. On the day prior to the experiment, recombinant HEK293 cells that stably express human and mouse TRPV3 were removed from tissue culture flasks and plated in growth medium at 20,000 cells/well into black-walled clear-bottom 384-well BIOCOAT™ poly-D-lysine assay plates (BD Biosciences, Bedford, Mass.) using a MULTIDROP® dispenser (ThermoScientific, Waltham, Mass.). On the day of the experiment, growth medium was removed, and the no-wash FLIPR® Calcium-4 dye (λEX=470-495 nm, λEM=515-575 nm; Molecular Devices, Sunnyvale, Calif.) was added to each well using the MULTIDROP® dispenser. Cells were incubated for 90-120 minutes in the dark. The compounds were dissolved in DMSO to prepare a 10 mM stock solution. The intensity of the fluorescence was captured and digitally transferred to an interfaced PC. The peak increase in fluorescence over baseline, measured in relative fluorescence units, was calculated and expressed as the percentage of the maximal 2-APB (2-aminoethoxyldiphenyl borate) response (in the absence of compound). The concentration of 2-APB corresponds to its EC80.

Row | Structure (SMILES) | IC50
1 | COc1ncnc(OC)c1C(=O)Nc1nc(C(F)(F)F)c(Cl)s1 [Example 63, N-[5-chloro-4-(trifluoromethyl)-1,3-thiazol-2-yl]-4,6-dimethoxypyrimidine-5-carboxamide] | < 50 nM
2 | COc1ncnc(OC)c1C(=O)Nc1nc(C(F)(F)F)c(-c2cn(C)nc2C)s1 [Example 67, N-[5-(1,3-dimethyl-1H-pyrazol-4-yl)-4-(trifluoromethyl)-1,3-thiazol-2-yl]-4,6-dimethoxypyrimidine-5-carboxamide] | 50 to 100 nM
3 | CCc1sc(NC(=O)c2c(OC)nc(C)nc2OC)nc1C(F)(F)F [Example 69, N-[5-ethyl-4-(trifluoromethyl)-1,3-thiazol-2-yl]-4,6-dimethoxy-2-methylpyrimidine-5-carboxamide] | 50 to 100 nM
4 | CCOc1ncnc(OC)c1C(=O)Nc1nc(C(F)(F)F)c(CC)s1 [Example 70, 4-ethoxy-N-[5-ethyl-4-(trifluoromethyl)-1,3-thiazol-2-yl]-6-methoxypyrimidine-5-carboxamide] | < 50 nM
5 | CCOc1ncnc(OCC)c1C(=O)Nc1nc(C(F)(F)F)c(CC)s1 [Example 71, 4,6-diethoxy-N-[5-ethyl-4-(trifluoromethyl)-1,3-thiazol-2-yl]pyrimidine-5-carboxamide] | < 50 nM
6 | COc1ncnc(OC)c1C(=O)Nc1nc(-c2ccc(C(F)(F)F)cn2)cs1 [Example 73, 4,6-dimethoxy-N-{4-[5-(trifluoromethyl)pyridin-2-yl]-1,3-thiazol-2-yl}pyrimidine-5-carboxamide] | < 50 nM
7 | CCOC(=O)c1sc(NC(=O)c2c(OC)ncnc2OC)nc1-c1ccc(C(F)(F)F)cn1 [Example 75, ethyl 2-{[(4,6-dimethoxypyrimidin-5-yl)carbonyl]amino}-4-[5-(trifluoromethyl)pyridin-2-yl]-1,3-thiazole-5-carboxylate] | 100 to 500 nM
8 | COc1ncnc(OC)c1C(=O)Nc1nc(-c2ccc(C(F)(F)F)cn2)c(C=O)s1 [Example 76, N-{5-formyl-4-[5-(trifluoromethyl)pyridin-2-yl]-1,3-thiazol-2-yl}-4,6-dimethoxypyrimidine-5-carboxamide] | 100 to 500 nM
9 | COc1ncnc(OC)c1C(=O)Nc1nc(-c2ccc(C(F)(F)F)cn2)c(CN2CCOCC2)s1 [Example 77, 4,6-dimethoxy-N-{5-(morpholin-4-ylmethyl)-4-[5-(trifluoromethyl)pyridin-2-yl]-1,3-thiazol-2-yl}pyrimidine-5-carboxamide] | < 50 nM
10 | COc1ncnc(OC)c1C(=O)Nc1nc(-c2ccc(C(F)(F)F)cn2)c(CN2CCCC2)s1 [Example 78, 4,6-dimethoxy-N-{5-(pyrrolidin-1-ylmethyl)-4-[5-(trifluoromethyl)pyridin-2-yl]-1,3-thiazol-2-yl}pyrimidine-5-carboxamide] | 100 to 500 nM
11 | COc1ncnc(O)c1C(=O)Nc1nc(-c2ccc(C(F)(F)F)cn2)c(C(=O)N(C)C)s1 [Example 79, N-{5-(dimethylcarbamoyl)-4-[5-(trifluoromethyl)pyridin-2-yl]-1,3-thiazol-2-yl}-4-hydroxy-6-methoxypyrimidine-5-carboxamide] | > 1000 nM
12 | COc1ncnc(OC)c1C(=O)Nc1nc(-c2ccc(C(F)(F)F)cn2)c(CO)s1 [Example 80, N-{5-(hydroxymethyl)-4-[5-(trifluoromethyl)pyridin-2-yl]-1,3-thiazol-2-yl}-4,6-dimethoxypyrimidine-5-carboxamide] | 50 to 100 nM
13 | COc1ncnc(OC)c1C(=O)Nc1nc(-c2ccc(OC(F)(F)F)cc2)c(C(C)O)s1 (centres unmarked) [Example 82, N-{5-(1-hydroxyethyl)-4-[4-(trifluoromethoxy)phenyl]-1,3-thiazol-2-yl}-4,6-dimethoxypyrimidine-5-carboxamide] | 100 to 500 nM
14 | COc1ncnc(OC)c1C(=O)Nc1nc(-c2ccc(C(F)(F)F)cn2)c(C(C)(C)O)s1 [Example 85, N-{5-(2-hydroxypropan-2-yl)-4-[5-(trifluoromethyl)pyridin-2-yl]-1,3-thiazol-2-yl}-4,6-dimethoxypyrimidine-5-carboxamide] | 50 to 100 nM
15 | COCc1sc(NC(=O)c2c(OC)ncnc2OC)nc1-c1ccc(C(F)(F)F)cn1 [Example 86, 4,6-dimethoxy-N-{5-(methoxymethyl)-4-[5-(trifluoromethyl)pyridin-2-yl]-1,3-thiazol-2-yl}pyrimidine-5-carboxamide] | < 50 nM
16 | COc1ncnc(OC)c1C(=O)Nc1nc(-c2ccc(C(F)(F)F)cn2)c(C(C)=O)s1 [Example 87, N-{5-acetyl-4-[5-(trifluoromethyl)pyridin-2-yl]-1,3-thiazol-2-yl}-4,6-dimethoxypyrimidine-5-carboxamide] | 50 to 100 nM
17 | COc1ncnc(OC)c1C(=O)Nc1nc(-c2ccc(C(F)(F)F)cn2)c(/C(C)=N/O)s1 [Example 88, N-{5-[(1E)-N-hydroxyethanimidoyl]-4-[5-(trifluoromethyl)pyridin-2-yl]-1,3-thiazol-2-yl}-4,6-dimethoxypyrimidine-5-carboxamide] | 50 to 100 nM
18 | CO/N=C(\C)c1sc(NC(=O)c2c(OC)ncnc2OC)nc1-c1ccc(C(F)(F)F)cn1 [Example 89, 4,6-dimethoxy-N-{5-[(1E)-N-methoxyethanimidoyl]-4-[5-(trifluoromethyl)pyridin-2-yl]-1,3-thiazol-2-yl}pyrimidine-5-carboxamide] | < 50 nM
19 | COc1ncnc(OC)c1C(=O)Nc1nc(-c2ccc(C(F)(F)F)cn2)c(C2(C)OCCO2)s1 [Example 90, 4,6-dimethoxy-N-{5-(2-methyl-1,3-dioxolan-2-yl)-4-[5-(trifluoromethyl)pyridin-2-yl]-1,3-thiazol-2-yl}pyrimidine-5-carboxamide] | 50 to 100 nM
20 | COc1ncnc(OC)c1C(=O)Nc1nc(-c2ccc(F)cn2)cs1 [Example 91, N-[4-(5-fluoropyridin-2-yl)-1,3-thiazol-2-yl]-4,6-dimethoxypyrimidine-5-carboxamide] | 500 to 1000 nM
21 | COc1ncnc(OC)c1C(=O)Nc1nc(-c2ccc(OC(F)(F)F)cn2)cs1 [Example 92, 4,6-dimethoxy-N-{4-[5-(trifluoromethoxy)pyridin-2-yl]-1,3-thiazol-2-yl}pyrimidine-5-carboxamide] | < 50 nM
22 | COc1ncnc(OC)c1C(=O)Nc1nc(-c2ccc(OC(F)(F)F)cc2)cs1 [Example 93, 4,6-dimethoxy-N-{4-[4-(trifluoromethoxy)phenyl]-1,3-thiazol-2-yl}pyrimidine-5-carboxamide] | 100 to 500 nM
23 | COc1ncnc(OC)c1C(=O)Nc1nc(-c2ccc(C(F)F)cn2)cs1 [Example 94, N-{4-[5-(difluoromethyl)pyridin-2-yl]-1,3-thiazol-2-yl}-4,6-dimethoxypyrimidine-5-carboxamide] | 100 to 500 nM
24 | COc1ncnc(OC)c1C(=O)Nc1nc(-c2ccc(C(F)(F)F)cn2)c(C)s1 [Example 95, 4,6-dimethoxy-N-{5-methyl-4-[5-(trifluoromethyl)pyridin-2-yl]-1,3-thiazol-2-yl}pyrimidine-5-carboxamide] | < 50 nM
25 | COc1ncnc(OC)c1C(=O)Nc1nc(-c2ccc(C(F)(F)F)cn2)c(CCCO)s1 [Example 96, N-{5-(3-hydroxypropyl)-4-[5-(trifluoromethyl)pyridin-2-yl]-1,3-thiazol-2-yl}-4,6-dimethoxypyrimidine-5-carboxamide] | 100 to 500 nM
26 | COc1ncnc(OC)c1C(=O)Nc1nc(-c2ccc(C(F)(F)F)cn2)c(C#N)s1 [Example 97, N-{5-cyano-4-[5-(trifluoromethyl)pyridin-2-yl]-1,3-thiazol-2-yl}-4,6-dimethoxypyrimidine-5-carboxamide] | 50 to 100 nM
27 | COc1ncnc(OC)c1C(=O)Nc1nc(C2CCCC2)cs1 [Example 98, N-(4-cyclopentyl-1,3-thiazol-2-yl)-4,6-dimethoxypyrimidine-5-carboxamide] | 100 to 500 nM
28 | COc1ncnc(OC)c1C(=O)Nc1nc(C2CCC(F)(F)CC2)cs1 [Example 99, N-[4-(4,4-difluorocyclohexyl)-1,3-thiazol-2-yl]-4,6-dimethoxypyrimidine-5-carboxamide] | 100 to 500 nM
29 | COc1ncnc(OC)c1C(=O)Nc1nc(C(C)(C)C)c(F)s1 [Example 100, N-(4-tert-butyl-5-fluoro-1,3-thiazol-2-yl)-4,6-dimethoxypyrimidine-5-carboxamide] | < 50 nM
